{
  "source": "patent US20170107179A1",
  "about": "(Tetraphase Pharmaceuticals, Inc., priority 2010, published 2017)",
  "key": {"E. coli DH10B EC971 LacZ": {"system": "E. coli DH10B EC971 LacZ", "test": "MIC, E. coli DH10B recombinantly expressing control gene", "conditions": "E. coli DH10B, arabinose-induced, ampicillin in medium"}, "[1]": {"system": "Viridans group streptococci", "test": "Broth microdilution MIC by tetracycline resistance phenotype (Table 10)", "type": "cell-based", "design": "unit not given beside the values"}, "S. pneumoniae SP106": {"system": "S. pneumoniae SP106", "type": "cell-based", "conditions": "SP106, plates containing compound at 5× the MIC, 5% sheep blood"}, "[2]": {"test": "Preliminary pharmacokinetics in Sprague Dawley rats", "conditions": "rat, in vivo, po; Sprague Dawley rats (n = 3), initial preliminary testing; read-out: oral bioavailability (% F)"}, "[3]": {"system": "Gram-negative respiratory pathogens", "test": "Broth microdilution MIC, respiratory pathogens", "type": "cell-based", "conditions": "generally"}, "S. maltophila": {"system": "S. maltophila", "test": "Broth microdilution MIC by tetracycline resistance phenotype (Table 10)", "type": "cell-based", "design": "unit not given beside the values"}, "[4]": {"system": "E. coli DH10B EC1082 TetA", "test": "MIC, E. coli DH10B recombinantly expressing tetracycline-resistance gene", "conditions": "arabinose-induced, ampicillin in medium"}, "H. influenzae HI551": {"system": "H. influenzae HI551", "test": "Rat lung infection model", "type": "in vivo", "conditions": "H. influenzae intratracheal"}, "[5]": {"system": "Legionella pneumophila, 70 isolates, serogroups 1-6", "test": "microbe, parasite or virus in culture", "type": "cell-based"}, "[6]": {"system": "S. pneumoniae strain SP514", "test": "Immunocompetent CD-1 murine lung infection model", "type": "in vivo", "conditions": "immunocompetent CD-1 mice, SP514, orally dosed 30 mg/kg at 5, 24 and 36 hours post-infection (FIG. 2)", "experimental": "Compound 102 was tested in an immunocompetent CD-1 murine model of lung infection challenged with S. pneumoniae strain SP514."}, "S. aureus Smith": {"system": "S. aureus Smith", "test": "Mouse systemic infection (septicemia) model, CD-1 mice", "conditions": "Staphylococcus aureus, in Mus musculus, 48 h"}, "[7]": {"system": "E. coli DH10B EC1083 TetB", "test": "MIC, E. coli DH10B recombinantly expressing tetracycline-resistance gene", "conditions": "arabinose-induced, ampicillin in medium"}, "[8]": {"system": "E. coli DH10B EC1153 Tet(X)", "test": "MIC, E. coli DH10B recombinantly expressing tetracycline-resistance gene", "conditions": "arabinose-induced, ampicillin in medium"}},
  "data": [
    {"compound": "CN(C)[C@@H]1C(O)=C(C(N)=O)C(=O)[C@@]2(O)C(O)=C3C(=O)c4c(O)c5c(c(F)c4C[C@H]3C[C@@H]12)CN(C(C)(C)C)C5", "note": "[Compound 102]", "values": [
      {"measurement": "MIC EC971 LacZ", "setting": "E. coli DH10B EC971 LacZ", "value": 2},
      {"measurement": "MIC50", "setting": "[1]; TET NS, n=32", "value": 0.12},
      {"measurement": "MIC90", "setting": "[1]; TET NS, n=32", "value": 0.25},
      {"measurement": "MIC50", "setting": "[1]; TET S, n=65", "value": 0.06},
      {"measurement": "MIC90", "setting": "[1]; TET S, n=65", "value": 0.12},
      {"measurement": "spontaneous resistance frequency", "setting": "S. pneumoniae SP106", "value": "1×10^−8"},
      {"measurement": "bioavailability", "setting": "[2]", "value": 48.3, "unit": "%"},
      {"measurement": "MICs, fold higher than those of tigecycline", "setting": "[3]", "value": "2-4 fold"},
      {"measurement": "MIC50", "setting": "S. maltophila; TET NS, n=19", "value": 1},
      {"measurement": "MIC90", "setting": "S. maltophila; TET NS, n=19", "value": 4},
      {"measurement": "MIC50", "setting": "S. maltophila; TET S, n=10", "value": 0.5},
      {"measurement": "MIC90", "setting": "S. maltophila; TET S, n=10", "value": 0.5},
      {"measurement": "MIC EC1082 TetA", "setting": "[4]", "value": 2},
      {"measurement": "log10 reduction in CFU versus the 72 hour untreated control, IV", "setting": "H. influenzae HI551; 25 mg/kg IV at 5, 24 and 48 hours", "value": "3.40±0.31", "unit": "log10"},
      {"measurement": "log10 reduction in CFU versus the 72 hour untreated control, oral", "setting": "H. influenzae HI551; 100 mg/kg orally at 5, 24, 48 hours (FIG. 4)", "value": "2.93±0.27", "unit": "log10"},
      {"measurement": "MIC50", "setting": "[5]", "value": 2, "unit": "µg/mL"},
      {"measurement": "MIC90", "setting": "[5]", "value": 8, "unit": "µg/mL"},
      {"measurement": "log10 reduction in CFU versus the 48 hour untreated control", "setting": "[6]", "value": "6.14+/−0.66 log10"},
      {"measurement": "responders at 3 mg/kg", "setting": "S. aureus Smith; iv, read-out: Percent survival at 48 hours, IV (3 mg/kg)", "value": 100, "unit": "%"},
      {"measurement": "responders at 30 mg/kg", "setting": "S. aureus Smith; po, read-out: Percent survival at 48 hours, PO (30 mg/kg)", "value": 83, "unit": "%"},
      {"measurement": "MIC EC1083 TetB", "setting": "[7]", "value": 1},
      {"measurement": "MIC EC1153 Tet(X)", "setting": "[8]", "value": 4}
    ]}
  ]
}
